Assay results reported in US20200362309A1, “Method for preparing BAP or BA cells” (Anagenesis Biotechnologies S.A.S., priority 2017, published 2020).

System: BA cells differentiated from hiPS-derived BAP
Experiment: Lipolysis: free glycerol release by BA cells after forskolin stimulation
Assay type: cell-based, human
Conditions: forskolin 10 μM, 24 hours; BAP derived at day 12 or 16, 5 passages, differentiated for 17 days
Method: Lipolysis: The BAP were differentiated for 17 days. Then the cells were maintained for 24 hours in DMEM 1g/Iglucose supplemented with BSA 0,2%. Lipolysis was stimulated with forskolin (10 μM) for 24 hours.

C=C[C@@]1(C)CC(=O)[C@]2(O)[C@@]3(C)[C@@H](O)CCC(C)(C)[C@@H]3[C@H](O)[C@H](OC(C)=O)[C@@]2(C)O1 [forskolin]
increase of the free glycerol released, treated cells compared to untreated cells: about 60%
